According to patent publication US4317826A, “N,N'-Bis[substituted-1,2,3,4 tetrahydroisoquinolyl]disulfonylimides and antiallergic compositions and method of use” (SmithKline Corporation, priority 1980, dated 1982):

System: slow reacting substance of anaphylaxis (SRS-A)
Assay: Inhibition of SRS-A induced contraction of guinea pig ileum
Assay type: cell-based
Settings: Cavia porcellus, 0.25 h, partially purified SRS-A from guinea pig lung at 40 μg/ml, 15 minute incubation, read-out: Percent Antagonism; for inhibition at 5 µM: compound concentration 5 × 10^-6 M
Method: The SRS-A antagonist activity of the compounds of this invention is measured by the ability of the active medicament to inhibit SRS-A induced contraction of guinea pig ileum. In this test system, sections of ileum are resected from guinea pigs and placed in 5 ml. tissue baths containing a modified Tyrode's solution. One end of the tissue is fixed to a glass tissue holder, the other is connected to a force-displacement transducer and the tissue is placed under a tension of 500 mg. Isometric tissue contractions are recorded on a six channel polygraph. Baths are constantly aerated with 95% O2 -5% CO2. After a 20 minute stabilization period a concentration of the appropriate agonist which provides a contraction height of 60-80% of the maximum obtainable to that agonist (as determined from full sequential concentration--response curves in separate experiments) is added to the tissue bath and the response recorded. The procedure is repeated until reproducible responses are obtained. For most agonists, two applications in rapid succession, followed 15 minutes later by a third, is sufficient to establish reproducibility. Experimental tissues are incubated with the selected concentration of the test compounds for 15 minutes. Experimental and control tissues are subjected to 5 bath changes during the incubation interval. Changes in bath fluid during the incubation period are helpful in insuring the reproducibility of tissue responses to the agonist. The same concentration of the agonist is reapplied in the presence of the test compound and the response registered and compared with controls. Percent inhibition produced by the test compound is calculated by subtracting the mean percentage change in control tissue from the mean percentage change in tissues exposed to the test compound. Additional compounds are then evaluated as long as the tissue remains reproducibly responsive to the agonist. Six tissues obtained from 6 animals are used simultaneously--3 controls and 3 experimental.
The compounds of this invention tested at concentrations of from 5×10^-5 to 5×10^-6 produce marked antagonism of partially purified slow reacting substance of anaphylaxis obtained from guinea pig lung. The agonist is employed at a concentration of 40 μg/ml. Representative of this effect, tabulated below are a number of the claimed compounds and percent antagonism of SRS-A at various compound concentrations.

| SMILES | inhibition at 5 µM [%] | inhibition at 50 µM (compound concentration 5 × 10^-5 M) [%] |
| --- | --- | --- |
| CC1Cc2ccc(Cl)c(Cl)c2CN1S(=O)(=O)NS(=O)(=O)N1Cc2c(ccc(Cl)c2Cl)CC1C (centres unmarked) [7-Cl 8-Cl H CH3] | 52.5 | – |
| O=S(=O)(NS(=O)(=O)N1CCc2c(Br)cccc2C1)N1CCc2c(Br)cccc2C1 [H 5-Br H H] | 45.2 | – |
| O=S(=O)(NS(=O)(=O)N1CCc2cc(Cl)ccc2C1)N1CCc2cc(Cl)ccc2C1 [H 6-Cl H H] | – | 84.2 |
| O=S(=O)(NS(=O)(=O)N1CCc2cc(Cl)c(Cl)cc2C1)N1CCc2cc(Cl)c(Cl)cc2C1 [7-Cl 6-Cl H H] | 56.3 | – |
| O=S(=O)(NS(=O)(=O)N1CCc2ccc(Cl)c(Cl)c2C1C1CC1)N1CCc2ccc(Cl)c(Cl)c2C1C1CC1 (centres unmarked) [7-Cl 8-Cl [drawing 3] H] | 60 | – |
| O=S(=O)(NS(=O)(=O)N1CCc2c(Br)ccc(Br)c2C1)N1CCc2c(Br)ccc(Br)c2C1 [8-Br 5-Br H H] | 22.9 | – |
| O=S(=O)(NS(=O)(=O)N1CCc2ccc(C(F)(F)F)c(C(F)(F)F)c2C1)N1CCc2ccc(C(F)(F)F)c(C(F)(F)F)c2C1 [7-CF3 8-CF3 H H] | 26.8 | – |
| Cc1ccc2c(c1Cl)CN(S(=O)(=O)NS(=O)(=O)N1CCc3ccc(C)c(Cl)c3C1)CC2 [7-CH3 8-Cl H H] | 49.9 | – |
| O=S(=O)(NS(=O)(=O)N1CCc2ccc(Cl)c(Cl)c2C1)N1CCc2ccc(Cl)c(Cl)c2C1 [7-Cl 8-Cl H H, N,N'-bis(7,8-dichloro-1,2,3,4,-tetrahydroisoquinolyl)disulfonylimide] | 42 | – |
| O=S(=O)(NS(=O)(=O)N1CCc2ccc(Cl)c(SC(F)(F)C(F)F)c2C1)N1CCc2ccc(Cl)c(SC(F)(F)C(F)F)c2C1 [7-Cl 8-SCF2 CF2 H H H] | 36.2 | – |
| CC(C)C1c2c(ccc(Cl)c2Cl)CCN1S(=O)(=O)NS(=O)(=O)N1CCc2ccc(Cl)c(Cl)c2C1C(C)C (centres unmarked) [7-Cl 8-Cl CH(CH3)2 H] | 63 | – |
